From patent publication US5057614A, “Substituted pyrroles” (Hoffmann-La Roche Inc., priority 1988, dated 1991) come the findings set out here.

The test addresses protein kinase C. Description: inhibition of protein kinase C in vitro (protein kinase-induced incorporation of 32P from [γ-32P]ATP into histone). The following applies: concentration reducing by 50% the protein kinase-induced incorporation of 32P from [γ-32P]ATP into histone. The class given is biochemical. The source says: The IC50 figures in the following Table, represent that concentration of test compound which reduces by 50% the protein kinase-induced incorporation of ^32 P from [γ-^32 P]ATP into histone.
As to `Cc1cccc(C2=C(c3cn(C)c4ccccc34)C(=O)NC2=O)c1` [3-(1-methyl-3-indolyl)-4-(3-methylphenyl)-1H-pyrrole-2,5-dione], the IC50 – broadly, the point on the concentration scale where inhibition reaches its midpoint – stood at 1000 nM.
Consider `Cn1cc(C2=C(c3cn(CCCNC(N)=N[N+](=O)[O-])c4ccccc34)C(=O)NC2=O)c2ccccc21` [3-(1-methyl-3-indolyl)-4-[1-[3-(2-nitroguanidino)propyl]-3-indolyl]-1H-pyrrole-2,5-dione], for which the half-inhibitory concentration (IC50) is 25 nM.
On to `Cn1cc(C2=C(c3cn(C)c4ccc(N)cc34)C(=O)NC2=O)c2ccccc21` [3-(5-amino-1-methyl-3-indolyl)-4-(1-methyl-3-indolyl)-1H-pyrrole-2,5-dione], for which the IC50 is 600 nM.
`Cn1cc(C2=C(c3cn(CCC(N)=O)c4ccccc34)C(=O)NC2=O)c2ccccc21` [3-[1-(2-carbamoylethyl)-3-indolyl]-4-(1-methyl-3-indolyl)-1H-pyrrole-2,5-dione] yielded an IC50 of 500 nM.
`Cn1cc(C2=C(c3cn(CCCN=C=S)c4ccccc34)C(=O)NC2=O)c2ccccc21` [3-[1-(3-isothiocyanatopropyl)-3-indolyl]-4-(1-methyl-3-indolyl)-1H-pyrrole-2,5-dione] came in with a half-maximal inhibitory concentration (IC50) of 8 nM.
Under `Cn1cc(C2=C(c3cn(CCCSC(=N)N)c4ccccc34)C(=O)NC2=O)c2ccccc21` [3-[1-[3-(amidinothio)propyl]-3-indolyl]-4-(1-methyl-3-indolyl)-1H-pyrrole-2,5-dione] stands 10 nM.
